# Experimental data reported in US9278068B2, “Vesicle compositions” (Sensulin LLC, priority 2011, dated 2016).
# Test system: HeLa cells
# Test: not given
# Details: human
SMILES,MTT (% Cell Survival) 40 nM [%],MTT (% Cell Survival) 80 nM [%],MTT (% Cell Survival) 160 nM [%]
OB(O)c1ccc(Cl)cc1 [4-chlorophenylboronic acid],51.23,81.65,56.97

# Test system: NF-κB
# Test: not given
# Details: human
SMILES,Inflammation (PCC) 40 nM,Inflammation (PCC) 80 nM,Inflammation (PCC) 160 nM
OB(O)c1ccc(Cl)cc1 [4-chlorophenylboronic acid],−0.1494,0.01664,0

# Test system: HeLa cells
# Test: MTT assay for cytotoxicity
# Details: 40 nM, 2 h
# Description: The cytotoxicity of the boronic acid derivatives from Table 1 was studied by MTT assay. 150,000 HeLa cells were plated in 96 well plates on the night before the experiments. On the day of experiments, the cells were treated with the boronic acid derivatives at three different concentrations (40 nM, 80 nM, and 160 nM) for 2 h. At the end of the incubation, MTT assays (In-Vitro toxicology MTT based assay kit, Sigma Aldrich, MO) were performed according to the manufacturer's protocol.
row,SMILES,MTT (% Cell Survival) 40 nM [%]
1,OB(O)c1ccc(-c2ccccc2)s1 [5-phenyl-2-thienylboronic acid],100.56
2,"CN(C)c1cccc(B(O)O)c1 [3-(N,N-dimethylamino)phenyl boronic acid]",123.37
3,CCCc1ccc(B(O)O)cc1 [4-propylphenylboronic acid],202.674
4,OB(O)c1cccnc1Br [2-bromopyridine-3-boronic acid],102.96
5,OB(O)c1cccc(Cl)c1 [3-chlorophenylboronic acid],97.1779
6,OB(O)c1ccc(O)cc1 [4-hydroxyphenylboronic acid],203.926
7,"OB(O)c1ccc(Cl)cc1Cl [2,4-dicholorophenylboronic acid]",99.29
8,OB(O)c1ccccc1O [2-hydroxyphenylboronic acid],70.3314

# Same assay, conditions: 80 nM, 2 h
row,SMILES,MTT (% Cell Survival) 80 nM [%]
1,OB(O)c1ccc(-c2ccccc2)s1 [5-phenyl-2-thienylboronic acid],81.24
2,"CN(C)c1cccc(B(O)O)c1 [3-(N,N-dimethylamino)phenyl boronic acid]",86.2247
3,CCCc1ccc(B(O)O)cc1 [4-propylphenylboronic acid],202.92
4,OB(O)c1cccnc1Br [2-bromopyridine-3-boronic acid],94.00
5,OB(O)c1cccc(Cl)c1 [3-chlorophenylboronic acid],73.129
6,OB(O)c1ccc(O)cc1 [4-hydroxyphenylboronic acid],198.184
7,"OB(O)c1ccc(Cl)cc1Cl [2,4-dicholorophenylboronic acid]",81.59
8,OB(O)c1ccccc1O [2-hydroxyphenylboronic acid],55.8039

# Same assay, conditions: 160 nM, 2 h
row,SMILES,MTT (% Cell Survival) 160 nM [%]
1,OB(O)c1ccc(-c2ccccc2)s1 [5-phenyl-2-thienylboronic acid],86.23
2,"CN(C)c1cccc(B(O)O)c1 [3-(N,N-dimethylamino)phenyl boronic acid]",85.91
3,CCCc1ccc(B(O)O)cc1 [4-propylphenylboronic acid],164.2
4,OB(O)c1cccnc1Br [2-bromopyridine-3-boronic acid],87.88
5,OB(O)c1cccc(Cl)c1 [3-chlorophenylboronic acid],38.55
6,OB(O)c1ccc(O)cc1 [4-hydroxyphenylboronic acid],172.8
7,"OB(O)c1ccc(Cl)cc1Cl [2,4-dicholorophenylboronic acid]",79.9
8,OB(O)c1ccccc1O [2-hydroxyphenylboronic acid],53.64

# Test system: not listed separately
# Test: Binding assay: competition with ConA-FITC on glucose-terminated magnetic beads
# Details: relative to ConA; 2.4 μM ConA-FITC, boronic acid 2.5 μM to 20 μM, PBS pH 7.2
# Description: The binding affinity of boronic acid derivatives to glucose was determined by competition assay using ConcanavalinA (ConA) as the competitive standard, and varying concentrations of the boronic acid derivatives. Carboxy-terminated magnetic beads were activated by suspending the beads in 100 mM 2-(N-morpholino)ethanesulfonic acid (MES) buffer (pH 4.5). Glucosamine (100 mg/mL) was conjugated to the activated magnetic beads using carbodiimide coupling with 1-ethyl-3-(3-dimethylaminopropyl)carbodiimide (EDC) as a crosslinker. The conjugation reaction was carried out in a 96 well plate. The reaction was run for 24 h. The beads were separated by placing the microplate on a magnetic separator and were washed thoroughly with PBS at pH 7.2 to remove unbound glucose, excess EDC, and N-hydroxysulfosuccinimide (Sulfo-NHS).
# The glucose terminated beads were co-incubated for 1 h with 2.4 μM ConA (a known binder of carbohydrates) fluorescently tagged with fluorescein isothiocyanate (ConA-FITC), and titrated with concentrations ranging from 2.5 μM to 20 μM of each boronic acid derivative tested. The following controls were used: (A) carboxy-terminated magnetic beads (not conjugated to glucose) were treated with ConA-FITC to determine non-specific binding; and (B) glucose conjugated beads were treated with a high concentration of non-fluorescent ConA to determine maximal binding.
# The wells were washed three times with PBS at pH 7.2 to remove unbound boronic acid derivatives and FITC-ConA. The beads were re-suspended in PBS and stirred for 15 min at rt before measuring FITC fluorescence (excitation: 495 nm, top emission: 520 nm; 6 flashes per well; average of n=3 wells in a Flexstation 11^384 microplate reader to quantify the amount of glucose bound to the boronic acids). The fluorescence intensity was measured and used as an indication of the amount of ConA bound to the surface of the beads, or [ConAs]. The ConA-sugar interaction was expected to be inhibited by the boronic acid derivatives, which can bind the sugar molecules and displace the bound ConA-FITC, thereby causing a decrease in fluorescence intensity of the mixture.
# The binding constant of the boronic acid derivatives was calculated from the fluorescence intensity. The reduction of fluorescence intensity is related to [ConAs] by Equation 2.
# [formula] The relationship between [ConAs] and the amount of boronic acid [BA] is given by Equation 3.
# [formula] Simple rearrangement yields Equation 4, from which the ratio of the two equilibrium constants (KConA/KBA) can be derived.
# [formula] • The concentration of sugar sites (S1) can be calculated from the intercept of a plot of 1/[ConAs] vs 1/[BA].
row,Sugar Binding Affinity Log(KaBA/KaConA),SMILES
1,−2.9,OB(O)c1cccnc1Br [2-bromopyridine-3-boronic acid]
2,−1.03,OB(O)c1cccc(Cl)c1 [3-chlorophenylboronic acid]

# The remaining lines, values behind:
row,SMILES,Sugar Binding Affinity Log(KaBA/KaConA)
1,OB(O)c1ccc(-c2ccccc2)s1 [5-phenyl-2-thienylboronic acid],−2.3
2,"CN(C)c1cccc(B(O)O)c1 [3-(N,N-dimethylamino)phenyl boronic acid]",−0.14
3,CCCc1ccc(B(O)O)cc1 [4-propylphenylboronic acid],−0.009
4,OB(O)c1ccc(O)cc1 [4-hydroxyphenylboronic acid],−1.08
5,"OB(O)c1ccc(Cl)cc1Cl [2,4-dicholorophenylboronic acid]",−0.93

# Test system: NF-κB
# Test: NF-κB assay for inflammation (nuclear translocation of NF-κB, immunocytochemistry, PCC)
# Details: HeLa cells, 40 nM, 2 h; PCC between nuclear and cytoplasmic fraction of NF-κB
# Description: 15,000 HeLa cells were plated in 96 well plates the night before the experiments. On the day of the experiments, the cells were treated with the boronic acids (Table 1, below) at three different concentrations (40 nM, 80 nM, and 160 nM) for 2 h. At the end of the incubation, cells were washed with phosphate buffered saline (PBS) and were fixed in 4% paraformaldehyde for 15 min and permeablized with 0.01% Triton X-100 in PBS for 10 min. The cells were washed with PBS three times. Nonspecific sites were blocked with 5% bovine serum albumin (BSA) in PBS and incubated with the Anti-NF-κB for 1 h, followed by incubation with fluorescein isothiocyanate (FITC)-labeled secondary antibody. After washing the cells at the end of the incubation, the cells were treated with 4′,6-diamidino-2-phenylindole (DAPI) for 1 min and kept at 4° C. until further analysis. Images of the cells were acquired with a Beckman-Coulter 100 automated high-throughput microscope system and analyzed using Cytseer software (Vala Sciences, CA). The co-localization of NF-κB was quantified by measuring the PCC between the nuclear and cytoplasmic fraction of the NF-κB molecule. The PCC is a measure of the overlap between the pixel intensities of the nuclear and NF-κB images of the same cell. The PCC values can range from −1 to 1. […] A negative correlation (negative PCC value) indicates an absence of nuclear translocation.
row,Inflammation (PCC) 40 nM,SMILES
1,−0.0553,OB(O)c1cccnc1Br [2-bromopyridine-3-boronic acid]
2,−0.0824,OB(O)c1cccc(Cl)c1 [3-chlorophenylboronic acid]
3,−0.0198,OB(O)c1ccccc1O [2-hydroxyphenylboronic acid]

# Second part, the compound before the results:
row,SMILES,Inflammation (PCC) 40 nM
1,OB(O)c1ccc(-c2ccccc2)s1 [5-phenyl-2-thienylboronic acid],−0.0211
2,"CN(C)c1cccc(B(O)O)c1 [3-(N,N-dimethylamino)phenyl boronic acid]",−0.1236
3,CCCc1ccc(B(O)O)cc1 [4-propylphenylboronic acid],−0.1402
4,OB(O)c1ccc(O)cc1 [4-hydroxyphenylboronic acid],−0.0665
5,"OB(O)c1ccc(Cl)cc1Cl [2,4-dicholorophenylboronic acid]",−0.0502

# Same assay, conditions: HeLa cells, 80 nM, 2 h; PCC between nuclear and cytoplasmic fraction of NF-κB
row,Inflammation (PCC) 80 nM,SMILES
1,−0.0396,OB(O)c1cccnc1Br [2-bromopyridine-3-boronic acid]
2,0.03311,OB(O)c1cccc(Cl)c1 [3-chlorophenylboronic acid]
3,−0.0878,OB(O)c1ccccc1O [2-hydroxyphenylboronic acid]

# Further lines, the compound ahead of its results:
row,SMILES,Inflammation (PCC) 80 nM
1,OB(O)c1ccc(-c2ccccc2)s1 [5-phenyl-2-thienylboronic acid],−0.0701
2,"CN(C)c1cccc(B(O)O)c1 [3-(N,N-dimethylamino)phenyl boronic acid]",−0.0401
3,CCCc1ccc(B(O)O)cc1 [4-propylphenylboronic acid],−0.0786
4,OB(O)c1ccc(O)cc1 [4-hydroxyphenylboronic acid],−0.1081
5,"OB(O)c1ccc(Cl)cc1Cl [2,4-dicholorophenylboronic acid]",0.09386

# Same assay, conditions: HeLa cells, 160 nM, 2 h; PCC between nuclear and cytoplasmic fraction of NF-κB
row,Inflammation (PCC) 160 nM,SMILES
1,0.1494,OB(O)c1cccnc1Br [2-bromopyridine-3-boronic acid]
2,0.3965,OB(O)c1cccc(Cl)c1 [3-chlorophenylboronic acid]
3,0.08884,OB(O)c1ccccc1O [2-hydroxyphenylboronic acid]

# More lines, now with the values behind:
row,SMILES,Inflammation (PCC) 160 nM
1,OB(O)c1ccc(-c2ccccc2)s1 [5-phenyl-2-thienylboronic acid],0.1187
2,"CN(C)c1cccc(B(O)O)c1 [3-(N,N-dimethylamino)phenyl boronic acid]",0.1862
3,CCCc1ccc(B(O)O)cc1 [4-propylphenylboronic acid],0.1922
4,OB(O)c1ccc(O)cc1 [4-hydroxyphenylboronic acid],0.2007
5,"OB(O)c1ccc(Cl)cc1Cl [2,4-dicholorophenylboronic acid]",0.3067
